Experimental data taken from US20160113921A1, “COMBINATION THERAPY COMPRISING OXAZOLIDINONE-QUINOLONES FOR USE IN TREATING BACTERIAL INFECTIONS” (MORPHOCHEM AKTIENGESELLSCHAFT FÜR KOMBINATORISCHE CHEMIE, priority 2013, published 2016).
In brackets after ≈: the same amount, converted by molar mass. Like-named read-outs stand apart in the source and are kept apart here.

How the values were obtained:
Type in all cases: cell-based
E. faecalis ATCC 29212 = assay: MIC, broth microdilution (CLSI), CAMHB; settings: Enterococcus faecalis
Procedure: (§1) MIC-testing was done immediately after preparation of the dilutions. All tests were done in duplicate and repeated once on a separate occasion.
(§2) 1 mL of the bacterial suspension was transferred into a tube containing 10 mL CAMHB and was vortexed thoroughly. (S. pneumoniae 1 mL in 10 mL CAMHB+5% lysed horse blood). Columns 1-15 of the 96-well plate were inoculated with 5 μL of this suspension (1-15=antibacterial solution, 16=sterile medium without test item).
(§3) Turbidity was read visually with a mirror.

E. faecalis V583 (VanB) = assay: MIC, broth microdilution (CLSI), CAMHB; settings: Enterococcus faecalis
Procedure: as §1, §2, §3

E. faecium DSMZ 2146 = assay: MIC, broth microdilution (CLSI), CAMHB; settings: Enterococcus faecium
Procedure: as §1, §2, §3

[1] = test system: E. faecium UW 3695 (linezolid and quinolone-resistant); assay: MIC, broth microdilution (CLSI), CAMHB; settings: Enterococcus faecium
Procedure: as §1, §2, §3

S. aureus ATCC 29213 = assay: MIC, broth microdilution (CLSI), CAMHB; settings: Staphylococcus aureus
Procedure: as §1, §2, §3

[2] = test system: S. aureus ATCC 33593 (MRSA); assay: MIC, broth microdilution (CLSI), CAMHB; settings: Staphylococcus aureus
Procedure: as §1, §2, §3

[3] = test system: S. aureus NRS-119 (MRSA, linezolid- and quinolone-resistant); assay: MIC, broth microdilution (CLSI), CAMHB; settings: Staphylococcus aureus
Procedure: as §1, §2, §3

[4] = test system: S. aureus Visa Mu 50 (MRSA, vancomycin intermediate susceptible); assay: MIC, broth microdilution (CLSI), CAMHB; settings: Staphylococcus aureus
Procedure: as §1, §2, §3

S. pneumoniae ATCC 33400 = assay: MIC, broth microdilution (CLSI), CAMHB; settings: Streptococcus pneumoniae
Procedure: as §1, §2, §3

[5] = test system: S. pneumoniae BAY 19397 (penicillin-, macrolide-, quinolone-resistant); assay: MIC, broth microdilution (CLSI), CAMHB; settings: Streptococcus pneumoniae
Procedure: as §1, §2, §3

[6] = test system: S. aureus DSM 11823, clone 16 (MSSA, quinolone-resistant); assay: microbe, parasite or virus in culture; settings: Staphylococcus aureus
Procedure: as §1, §2, §3

[7] = test system: Gram-positive strains tested; assay: MIC testing, statements on the Gram-positive strain panel; settings: read-out: MIC (inhibitory concentration)
Source text: as §1

E. cloacae ATCC 13047 = assay: MIC, broth microdilution (CLSI), CAMHB; settings: Enterobacter cloacae
Procedure: as §1, §2, §3

[8] = test system: E. cloacae NRZ-00239 (VIM-1); assay: MIC, broth microdilution (CLSI), CAMHB; settings: Enterobacter cloacae
Procedure: as §1, §2, §3

E. coli ATCC 25922 = assay: MIC, broth microdilution (CLSI), CAMHB; settings: Escherichia coli
Procedure: as §1, §2, §3

[9] = test system: E. coli GNS-2601 (ESBL CTX-M-15); assay: MIC, broth microdilution (CLSI), CAMHB; settings: Escherichia coli
Procedure: as §1, §2, §3

[10] = test system: E. coli NRZ-00302 (metallo β-lactamase NDM-1); assay: MIC, broth microdilution (CLSI), CAMHB; settings: Escherichia coli
Procedure: as §1, §2, §3

[11] = test system: E. coli NRZ-00401 (metallo β-lactamase VIM-1); assay: MIC, broth microdilution (CLSI), CAMHB; settings: Escherichia coli
Procedure: as §1, §2, §3

K. pneumoniae ATCC 13883 = assay: MIC, broth microdilution (CLSI), CAMHB; settings: Klebsiella pneumoniae
Procedure: as §1, §2, §3

[12] = test system: K. pneumoniae NRZ-00002 (OXA-48); assay: MIC, broth microdilution (CLSI), CAMHB; settings: Klebsiella pneumoniae
Procedure: as §1, §2, §3

[13] = test system: K. pneumoniae NRZ-00103 (KPC-2); assay: MIC, broth microdilution (CLSI), CAMHB; settings: Klebsiella pneumoniae
Procedure: as §1, §2, §3

[14] = test system: K. pneumoniae NRZ-00535 (VIM-1); assay: MIC, broth microdilution (CLSI), CAMHB; settings: Klebsiella pneumoniae
Procedure: as §1, §2, §3

P. aeruginosa ATCC 10145 = assay: MIC, broth microdilution (CLSI), CAMHB; settings: Pseudomonas aeruginosa
Procedure: as §1, §2, §3

[15] = test system: P. aeruginosa NRZ-00425 (VIM-1); assay: MIC, broth microdilution (CLSI), CAMHB; settings: Pseudomonas aeruginosa
Procedure: as §1, §2, §3

P. mirabilis ATCC 9240 = assay: MIC, broth microdilution (CLSI), CAMHB; settings: Proteus mirabilis
Procedure: as §1, §2, §3

[16] = test system: P. mirabilis NRZ-00185 (AmpC, type CMY-2); assay: MIC, broth microdilution (CLSI), CAMHB; settings: Proteus mirabilis
Procedure: as §1, §2, §3

[17] = test system: Gram-negative test strains (Enterobacteriaceae, non-fermenters); assay: MIC testing, statements on the Gram-negative strain panel
Source text: as §1

[18] = monosubstance, Ef ATCC29212, read-out: MIC
[19] = monosubstance, Ef V583, read-out: MIC
[20] = monosubstance, Efc DSMZ2146, read-out: MIC
[21] = monosubstance, Efc UW3695, read-out: MIC
[22] = monosubstance, Sa ATCC29213, read-out: MIC
[23] = monosubstance, Sa ATCC33593, read-out: MIC
[24] = monosubstance, Sa NRS119, read-out: MIC
[25] = monosubstance, Sa VisaMu50, read-out: MIC
[26] = monosubstance, Spn ATCC33400, read-out: MIC
[27] = monosubstance, Spn 19397, read-out: MIC

Row | Structure (SMILES) | MIC (E. faecalis ATCC 29212; [18]) | MIC (E. faecalis V583 (VanB); [19]) | MIC (E. faecium DSMZ 2146; [20]) | MIC [1, 21] | MIC (S. aureus ATCC 29213; [22]) | MIC [2, 23] | MIC [3, 24] | MIC [4, 25] | MIC (S. pneumoniae ATCC 33400; [26]) | MIC [5, 27] | MIC [6] | MIC (E. faecalis ATCC 29212; ATCC29212) | MIC (E. faecalis V583 (VanB)) | MIC (E. faecium DSMZ 2146; DSMZ2146) | MIC [1] | MIC (S. aureus ATCC 29213; ATCC29213) | MIC [2] | MIC [3] | MIC [4] | MIC (S. pneumoniae ATCC 33400; ATCC33400) | also measured
1 | CC(=O)NC[C@H]1CN(c2ccc(N3CCOCC3)c(F)c2)C(=O)O1 [linezolid] | 4 µg/mL (≈ 11.9 µM) | 2 µg/mL (≈ 5.93 µM) | 4 µg/mL (≈ 11.9 µM) | 16 µg/mL (≈ 47.4 µM) | 2 µg/mL (≈ 5.93 µM) | 2 µg/mL (≈ 5.93 µM) | 64 µg/mL (≈ 190 µM) | 4 µg/mL (≈ 11.9 µM) | 2 µg/mL (≈ 5.93 µM) | 1 µg/mL (≈ 2.96 µM) | 2 µg/mL (≈ 5.93 µM) |  |  |  |  |  |  |  |  |  | MIC ([7]; all the test strains except S. aureus NRS-119 and E. faecium UW 3695): < 4 µg/mL
2 | COc1c(N2C[C@@H]3CCCN[C@@H]3C2)c(F)cc2c(=O)c(C(=O)O)cn(C3CC3)c12 [moxifloxacin] | 0.5 µg/mL (≈ 1.25 µM) | 0.25 µg/mL (≈ 0.623 µM) | 0.5 µg/mL (≈ 1.25 µM) | 64 µg/mL (≈ 159 µM) | 0.12 µg/mL (≈ 0.299 µM) | 0.06 µg/mL (≈ 0.149 µM) | 8 µg/mL (≈ 19.9 µM) | 8 µg/mL (≈ 19.9 µM) | 0.25 µg/mL (≈ 0.623 µM) | 4 µg/mL (≈ 9.96 µM) |  |  |  |  |  |  |  |  |  |  | 
3 | CN(C)c1cc(NC(=O)CNC(C)(C)C)c(O)c2c1C[C@H]1C[C@H]3[C@H](N(C)C)C(O)=C(C(N)=O)C(=O)[C@@]3(O)C(O)=C1C2=O [tigecycline] |  |  |  |  |  |  |  |  |  |  | 0.125 µg/mL (≈ 0.213 µM) | 0.25 µg/mL (≈ 0.427 µM) | 0.25 µg/mL (≈ 0.427 µM) | 0.25 µg/mL (≈ 0.427 µM) | 0.25 µg/mL (≈ 0.427 µM) | 0.25 µg/mL (≈ 0.427 µM) | 0.25 µg/mL (≈ 0.427 µM) | 0.25 µg/mL (≈ 0.427 µM) | 0.5 µg/mL (≈ 0.854 µM) | 0.0075 µg/mL (≈ 0.0128 µM) | MIC (E. cloacae ATCC 13047; ATCC13047): 2 µg/mL (≈ 3.41 µM); MIC [8]: 2 µg/mL (≈ 3.41 µM); MIC (E. coli ATCC 25922; ATCC25922): 0.5 µg/mL (≈ 0.854 µM); MIC [9]: 4 µg/mL (≈ 6.83 µM); MIC [10]: 2 µg/mL (≈ 3.41 µM); MIC [11]: 2 µg/mL (≈ 3.41 µM); MIC (K. pneumoniae ATCC 13883; ATCC13883): 2 µg/mL (≈ 3.41 µM); MIC [12]: 2 µg/mL (≈ 3.41 µM); MIC [13]: 4 µg/mL (≈ 6.83 µM); MIC [14]: 2 µg/mL (≈ 3.41 µM); MIC (P. aeruginosa ATCC 10145; ATCC10145): 16 µg/mL (≈ 27.3 µM); MIC [15]: 32 µg/mL (≈ 54.6 µM); MIC (P. mirabilis ATCC 9240; ATCC9240): 8 µg/mL (≈ 13.7 µM); MIC [16]: 8 µg/mL (≈ 13.7 µM); MIC [5]: 0.0075 µg/mL (≈ 0.0128 µM); MIC [17]: > 2 µg/mL; MIC [7]: < 0.5 µg/mL
4 | NC[C@H]1O[C@H](O[C@H]2[C@H](O)[C@@H](O[C@H]3O[C@H](CO)[C@@H](O)[C@H](N)[C@H]3O)[C@H](N)C[C@@H]2N)[C@H](N)C[C@@H]1O [tobramycin] |  |  |  |  |  |  |  |  |  |  |  |  |  |  |  |  |  |  |  |  | MIC (E. cloacae ATCC 13047; monosubstance, Ecl ATCC13047, read-out: MIC): 0.25 µg/mL (≈ 0.535 µM); MIC ([8]; monosubstance, Ecl NRZ00239, read-out: MIC): 4 µg/mL (≈ 8.56 µM); MIC (E. coli ATCC 25922; monosubstance, Ec ATCC25922, read-out: MIC): 1 µg/mL (≈ 2.14 µM); MIC ([9]; monosubstance, Ec GNS2601, read-out: MIC): 32 µg/mL (≈ 68.4 µM); MIC ([10]; monosubstance, Ec NRZ00302, read-out: MIC): 64 µg/mL (≈ 137 µM); MIC ([11]; monosubstance, Ec NRZ00401, read-out: MIC): 4 µg/mL (≈ 8.56 µM); MIC (K. pneumoniae ATCC 13883; monosubstance, Kp ATCC13883, read-out: MIC): 0.125 µg/mL (≈ 0.267 µM); MIC ([12]; monosubstance, Kp NRZ00002, read-out: MIC): 16 µg/mL (≈ 34.2 µM); MIC ([13]; monosubstance, Kp NRZ00103, read-out: MIC): 16 µg/mL (≈ 34.2 µM); MIC ([14]; monosubstance, Kp NRZ00535, read-out: MIC): 8 µg/mL (≈ 17.1 µM); MIC (P. aeruginosa ATCC 10145; monosubstance, Pa ATCC10145, read-out: MIC): 0.5 µg/mL (≈ 1.07 µM); MIC ([15]; monosubstance, Pa NRZ00425, read-out: MIC): > 128 µg/mL; MIC (P. mirabilis ATCC 9240; monosubstance, Pm ATCC9240, read-out: MIC): 0.5 µg/mL (≈ 1.07 µM); MIC ([16]; monosubstance, Pm NRZ00185, read-out: MIC): 0.125 µg/mL (≈ 0.267 µM); MIC ([17]; remainder / remaining / all other test strains, as worded for each agent, read-out: MIC): > 4 µg/mL
5 | CN[C@H](CC(C)C)C(=O)N[C@H]1C(=O)N[C@@H](CC(N)=O)C(=O)N[C@H]2C(=O)N[C@H]3C(=O)N[C@H](C(=O)N[C@H](C(=O)O)c4cc(O)cc(O)c4-c4cc3ccc4O)[C@H](O)c3ccc(c(Cl)c3)Oc3cc2cc(c3O[C@@H]2O[C@H](CO)[C@@H](O)[C@H](O)[C@H]2O[C@H]2C[C@](C)(N)[C@H](O)[C@H](C)O2)Oc2ccc(cc2Cl)[C@H]1O [vancomycin] |  |  |  |  |  |  |  |  |  |  | 0.015 µg/mL (≈ 0.0104 µM) | 1 µg/mL (≈ 0.69 µM) | 32 µg/mL (≈ 22.1 µM) | 0.25 µg/mL (≈ 0.173 µM) | 0.25 µg/mL (≈ 0.173 µM) | 0.25 µg/mL (≈ 0.173 µM) | 0.5 µg/mL (≈ 0.345 µM) | 1 µg/mL (≈ 0.69 µM) | 2 µg/mL (≈ 1.38 µM) | 0.25 µg/mL (≈ 0.173 µM) | MIC [5]: 0.25 µg/mL (≈ 0.173 µM)
